≈ marks a conversion by molar mass, not a printed value.
Columns and labels:
MDA-MB-468 = test: NCI-60 screen, Breast Cancer; assay type: cell-based, human; settings: 10 μM
Procedure: (§1) Several compounds were tested at single concentrations (10 μM) against 59 different human tumor cell lines, representing leukemia, melanoma and cancers of the lung, colon, brain, ovary, breast, prostate, and kidney (see, Table 3). The human tumor cell lines of the cancer screening panel were grown in RPMI 1640 medium containing 5% fetal bovine serum and 2 mM L-glutamine. For a typical screening experiment, cells were inoculated into 96 well microtiter plates in 100 μL at plating densities ranging from 5,000 to 40,000 cells/well depending on the doubling time of individual cell lines. After cell inoculation, the microtiter plates were incubated at 37° C., 5% CO2, 95% air and 100% relative humidity for 24 hours prior to addition of the compounds.
(§2) After 24 hours, two plates of each cell line were fixed in situ with TCA, to represent a measurement of the cell population for each cell line at the time of drug addition (Tz). Compounds were solubilized in dimethyl sulfoxide at 400-fold the desired final maximum test concentration and stored frozen prior to use. At the time of drug addition, an aliquot of frozen concentrate was thawed and diluted to twice the desired final maximum test concentration with complete medium containing 50 μg/ml gentamicin. Additional four, 10-fold or ½ log serial dilutions were made to provide a total of five compound concentrations plus control. Aliquots of 100 μl of these different drug dilutions were added to the appropriate microtiter wells already containing 100 μl of medium, resulting in the required final compound concentrations.
(§3) Following drug addition, the plates were incubated for an additional 48 hours at 37° C., 5% CO2, 95% air, and 100% relative humidity. For adherent cells, the assay was terminated by the addition of cold TCA. Cells were fixed in situ by the gentle addition of 50 μl of cold 50% (w/v) TCA (final concentration, 10% TCA) and incubated for 60 minutes at 4° C. The supernatant was discarded, and the plates were washed five times with tap water and air dried. Sulforhodamine B (SRB) solution (100 μl) at 0.4% (w/v) in 1% acetic acid was added to each well, and plates were incubated for 10 minutes at room temperature. After staining, unbound dye was removed by washing five times with 1% acetic acid and the plates were air dried. Bound stain was subsequently solubilized with 10 mM trizma base, and the absorbance was read on an automated plate reader at a wavelength of 515 nm. For suspension cells, the methodology was the same except that the assay was terminated by fixing settled cells at the bottom of the wells by gently adding 50 μl of 80% TCA (final concentration, 16% TCA). Using the seven absorbance measurements (time zero, (Tz), control growth, (C), and test growth in the presence of drug at the five concentration levels (Ti)), the percentage growth was calculated at each of the compound concentrations levels. Percentage growth inhibition was calculated as:
(§4) [(Ti−Tz)/(C−Tz)]×100 for concentrations for which Ti>/=Tz
(§5) [(Ti−Tz)/Tz]×100 for concentrations for which Ti<Tz.
(§6) Three dose response parameters were calculated for each compound. Growth inhibition of 50% (GI50) was calculated from [(Ti−Tz)/(C−Tz)]×100=50, which is the compound concentration resulting in a 50% reduction in the net protein increase (as measured by SRB staining) in control cells during the compound incubation. The compound concentration resulting in total growth inhibition (TGI) was calculated from Ti=Tz. The LC50 (concentration of compound resulting in a 50% reduction in the measured protein at the end of the compound treatment as compared to that at the beginning) indicating a net loss of cells following treatment was calculated from [(Ti−Tz)/Tz]×100=−50. Values were calculated for each of these three parameters if the level of activity was reached; however, if the effect was not reached or was exceeded, the value for that parameter was expressed as greater or less than the maximum or minimum concentration tested.

BT-549 = test: NCI-60 screen, Breast Cancer; assay type: cell-based, human; settings: 10 μM
Procedure: as §1, §2, §3, §4, §5, §6

[1] = test system: 59 different human tumor cell lines; test: NCI-60 DTP human tumor cell line screen, single concentration, mean over panel; assay type: cell-based; settings: single concentration 10 μM, mean over 59 human tumor cell lines; for inhibition at 10 µM: Homo sapiens, read-out: mean growth inhibition; for NCI Screen Mean % Growth: 48 hours, SRB
Procedure: as §1, §2, §3, §4, §5

PC-3 = test: NCI-60 screen, Prostate Cancer; assay type: cell-based, human; settings: 10 μM
Procedure: as §1, §2, §3, §4, §5, §6

DU-145 = test: NCI-60 screen, Prostate Cancer; assay type: cell-based, human; settings: 10 μM
Procedure: as §1, §2, §3, §4, §5, §6

786-0 = test: NCI-60 screen, Renal Cancer; assay type: cell-based, human; settings: 10 μM
Procedure: as §1, §2, §3, §4, §5, §6

RPMI-8226 = test: NCI-60 screen, Leukemia; assay type: cell-based, human; settings: 10 μM
Procedure: as §1, §2, §3, §4, §5, §6

MCF-10A (ATCC CRL-10317) = test: XTT cell viability assay, growth inhibition; assay type: cell-based; settings: Homo sapiens, MCF10A, non-tumorigenic, 48 hours incubation
Procedure: (§7) Compound A was tested against two human breast cancer cell lines, MCF-7 (ATCC HTB-22) and TMX2-28, and one non-tumorigenic breast cell line, MCF-10A (ATCC CRL-10317). MCF-7 and TMX2-28 cells were grown in DC5 cell growth media while the MCF-10A cells were grown in MEGM, both supplemented with 5% bovine growth serum. The cells were grown using standard techniques. Cell cultures at 50% confluence were harvested with trypsin, seeded onto sterile 96 well plates at a density of 10,000 cells/well and allowed to grow overnight to 50% confluence. Compound A was then added to the growth medium and allowed to further incubate for 48 hours. Viable cells were quantitated using an XTT assay (purchased from Roche).

[2] = test system: S. typhymurium ATTC 29631
TMX2-28 = test: XTT cell viability assay, growth inhibition; assay type: cell-based, human
Procedure: as §7

MCF-7 (ATCC HTB-22) = test: XTT cell viability assay, growth inhibition; assay type: cell-based, human
Procedure: as §7

human red blood cells = test: Lysis of human red blood cells (HC50); assay type: cell-based
HS 578T = test: NCI-60 screen, Breast Cancer; assay type: cell-based, human; settings: 10 μM
Procedure: as §1, §2, §3, §4, §5, §6

| Structure (SMILES) | Percent Growth (MDA-MB-468) [%] | Percent Growth (BT-549) [%] | inhibition at 10 µM [1] [%] | NCI Screen Mean % Growth [1] [%] | Percent Growth (PC-3) [%] | Percent Growth (DU-145) [%] | Percent Growth (786-0) [%] | Percent Growth (RPMI-8226) [%] | IC90 (MCF-10A (ATCC CRL-10317)) [µg/mL] | potent cytotoxicity against bacteria (concentration) [2] [µg/mL] | IC90 (TMX2-28; Homo sapiens, TMX2-28, tumorigenic, 48 hours incubation, XTT) [µg/mL] | Selectivity IC90/IC90 MCF10A (TMX2-28; TMX2-28 versus MCF10A) | IC90 (MCF-7 (ATCC HTB-22); Homo sapiens, MCF7, MCF-7, tumorigenic, 48 hours incubation, XTT) [µg/mL] | Selectivity IC90/IC90 MCF10A (MCF-7 (ATCC HTB-22); MCF-7 versus MCF10A) | 50% lysis (HC50) (human red blood cells) [µg/mL] | potent cytotoxicity against bacteria (concentration) (E. coli D31) [µg/mL] | Percent Growth (HS 578T) [%] |
| --- | --- | --- | --- | --- | --- | --- | --- | --- | --- | --- | --- | --- | --- | --- | --- | --- | --- |
| NCCSc1cc(SCCN)c(C(F)(F)F)cc1NC(=O)c1cc(C(=O)Nc2cc(C(F)(F)F)c(SCCN)cc2SCCN)ncn1 [Compound F] | −78.28 | 101.8 | > 30 | 41.28 | 46.61 | 51.97 | 50.09 | – | – | – | – | – | – | – | – | – | – |
| N=C(N)NCCCCC(=O)Nc1cc(C(F)(F)F)cc(NC(=O)Nc2ccc(NC(=O)Nc3cc(C(F)(F)F)cc(NC(=O)CCCCNC(=N)N)c3OC3CCNC3)cc2)c1OC1CCNC1 (centres unmarked) [Compound B] | 43.02 | 89.61 | > 30 | 56.58 | 59.59 | 70.36 | 58.61 | 49.97 | – | – | – | – | – | – | – | – | – |
| N=C(N)NCCCCC(=O)Nc1cc(C(F)(F)F)cc(NC(=O)c2cc(C(=O)Nc3cc(C(F)(F)F)cc(NC(=O)CCCCNC(=N)N)c3SCCN)ncn2)c1SCCN [Compound C] | −53.05 | 96.67 | > 30 | 43.48 | 77.68 | 62.89 | – | – | – | – | – | – | – | – | – | – | – |
| NCCc1cc(Br)cc(C#Cc2cccc(C#Cc3cc(Br)cc(CCN)c3)c2)c1 [Compound A] | −61.5 | 102 | – | – | 45.26 | −83.92 | −26.78 | 9.497 | 12.5 (≈ 23.9 µM) | 0.8 to 1.6 | 6.3 (≈ 12.1 µM) | 2 | 6.3 (≈ 12.1 µM) | 2 | 75 | 0.8 to 1.6 | – |
| c1cc(-c2ccc3sc4ccc(-c5ccnc(N6CCNCC6)c5)cc4c3c2)cc(N2CCNCC2)n1 [Compound E] | −82.28 | 98.88 | – | – | −85.11 | −97.96 | – | – | – | – | – | – | – | – | – | – | – |
| NCCCc1cccc(-c2ccc3oc4ccc(-c5cccc(CCCN)c5)cc4c3c2)c1 [Compound G] | −3.51 | 101.5 | > 30 | 49.56 | 54.99 | −23.65 | 5.487 | 65.28 | – | – | – | – | – | – | – | – | 100.4 |
| NCCCc1cccc(-c2ccc3sc4ccc(-c5cccc(CCCN)c5)cc4c3c2)c1 [Compound D] | 17.63 | 105.8 | > 30 | 67.91 | 73.6 | 55.35 | 79.48 | 62.06 | – | – | – | – | – | – | – | – | – |

Reference: US20120115877A1, “Facially Amphiphilic Compounds, Compositions, And Uses Thereof In Treating Cancer” (POLYMEDIX, INC., priority 2010, published 2012)
